Reference: publication PMC9025901, “New Genetic Bomb Trigger: Design, Synthesis, Molecular Dynamics Simulation, and Biological Evaluation of Novel BIBR1532-Related Analogs Targeting Telomerase against Non-Small Cell Lung Cancer” (Pharmaceuticals, 2022)

What was measured:
Test in all cases: NCI-60 in vitro anticancer screening (SRB)
NCI-H460 = conditions: NCI-H460, Lung cancer (NSCLC); 10 µM, 48 h
Procedure: (§1) The cancer screening panel’s human tumor 60 cell lines were cultured in the RPMI 1640 medium with (5%) fetal bovine serum and (2 mM) L-glutamine. For a screening experiment, cells were injected onto 96-well microtiter plates (100 µL), with plating densities varying from 5 to 40 × 10^3 cells per well, depending on different cell lines’ doubling times. Before introducing experimental drugs, the microtiter plates were incubated overnight at 37 °C, 95% air, 5% CO2, and 100% relative humidity after cell injection. TCA was employed to keep each cell line in place overnight, resembling a computation of the cell population for every cell line at the time of the addition of the drug. The experimental drugs were chilled after solubilization in DMSO at 400 times the final maximum test concentration. At the moment of the addition of the drug, the aliquot of the frozen concentrate was thawed and diluted to twice the required final maximum concentration with the complete medium containing (50 µg/mL) gentamicin. […] The bound dye was then solubilized with a (10 mM) trizma base, and absorbance was calculated at 515 nm on an automatic reader. […] The % growth of treated cells was established using seven absorbance measurements and compared to untreated control cells [57].

SNB-19 = conditions: SNB-19, CNS cancer; 10 µM, 48 h
Procedure: as §1

CCRF-CEM = conditions: Leukemia, 10 µM, 48 h
Procedure: (§2) The cancer screening panel’s human tumor 60 cell lines were cultured in the RPMI 1640 medium with (5%) fetal bovine serum and (2 mM) L-glutamine. For a screening experiment, cells were injected onto 96-well microtiter plates (100 µL), with plating densities varying from 5 to 40 × 10^3 cells per well, depending on different cell lines’ doubling times. Before introducing experimental drugs, the microtiter plates were incubated overnight at 37 °C, 95% air, 5% CO2, and 100% relative humidity after cell injection. TCA was employed to keep each cell line in place overnight, resembling a computation of the cell population for every cell line at the time of the addition of the drug. The experimental drugs were chilled after solubilization in DMSO at 400 times the final maximum test concentration. At the moment of the addition of the drug, the aliquot of the frozen concentrate was thawed and diluted to twice the required final maximum concentration with the complete medium containing (50 µg/mL) gentamicin. The required final concentration of the drug (10 µM) was reached by adding 100 µL aliquots of these definite dilutions of the drug to suitable microtiter wells previously holding a medium of 100 µL. […] The bound dye was then solubilized with a (10 mM) trizma base, and absorbance was calculated at 515 nm on an automatic reader. […]

HCT-116 = conditions: HCT-116, Colon cancer; 10 µM, 48 h
Procedure: as §1

SNB-75 = conditions: SNB-75, CNS cancer; 10 µM, 48 h
Procedure: as §1

HL-60(TB) = format: cell-based, human; conditions: Leukemia, 10 µM, 48 h
HS 578T = conditions: Breast cancer, 10 µM, 48 h
Procedure: as §2

SF-539 = conditions: SF-539, CNS cancer; 10 µM, 48 h
Procedure: as §1

NCI-H322M = conditions: Lung cancer (NSCLC), 10 µM, 48 h
Procedure: as §1

HCT-15 = conditions: HCT-15, Colon cancer; 10 µM, 48 h
Procedure: as §1

LOX IMVI = conditions: Melanoma, 10 µM, 48 h
Procedure: as §1

COLO 205 = conditions: COLO 205, Colon cancer; 10 µM, 48 h
Procedure: as §1

K-562 = conditions: K-562, Leukemia; 10 µM, 48 h
Procedure: as §1

A549/ATCC = conditions: Lung cancer (NSCLC), 10 µM, 48 h
Procedure: as §1

KM12 = conditions: KM12, Colon cancer; 10 µM, 48 h
Procedure: as §1

MDA-MB-435 = conditions: MDA-MB-435, Melanoma; 10 µM, 48 h
Procedure: as §2

PC-3 = conditions: PC-3, Prostate cancer; 10 µM, 48 h
Procedure: as §1

HOP-92 = conditions: HOP-92, Lung cancer (NSCLC); 10 µM, 48 h
Procedure: as §1

786-0 = conditions: 786-0, Renal cancer; 10 µM, 48 h
Procedure: as §1

DU-145 = conditions: DU-145, Prostate cancer; 10 µM, 48 h
Procedure: as §1

U251 = conditions: U251, CNS cancer; 10 µM, 48 h
Procedure: as §1

OVCAR-8 = conditions: OVCAR-8, Ovarian cancer; 10 µM, 48 h
Procedure: as §1

OVCAR-5 = conditions: OVCAR-5, Ovarian cancer; 10 µM, 48 h
Procedure: as §1

UACC-257 = conditions: UACC-257, Melanoma; 10 µM, 48 h
Procedure: as §1

SF-295 = conditions: SF-295, CNS cancer; 10 µM, 48 h
Procedure: as §1

MDA-MB-231/ATCC = conditions: Breast cancer, 10 µM, 48 h
Procedure: as §2

BT-549 = conditions: BT-549, Breast cancer; 10 µM, 48 h
Procedure: as §2

MALME-3M = conditions: Melanoma, 10 µM, 48 h
Procedure: as §1

NCI-H226 = conditions: NCI-H226, Lung cancer (NSCLC); 10 µM, 48 h
Procedure: as §1

SMILES: N#C/C(=C\c1ccc2ccccc2c1)C(=O)Nc1sc2c(c1C#N)CCCC2 [Compound 36b, (2E)-2-Cyano-N-(3-cyano-4,5,6,7-tetrahydro-1-benzothiophen-2-yl)-3-(naphthalen-2-yl)prop-2-enamide]
- Growth Percent (NCI-H460): 102.88%
- Growth Percent (SNB-19): 100.30%
- Growth Percent (CCRF-CEM): 104.69%
- Growth Percent (HCT-116): 100.18%
- Growth Percent (SNB-75): 101.09%
- Growth Percent (HL-60(TB)): 99.47%
- Growth Percent (HS 578T): 103.54%
- Growth Percent (SF-539): 98.71%
- Growth Percent (NCI-H322M): 98.58%
- Growth Percent (HCT-15): 99.95%
- Growth Percent (LOX IMVI): 102.88%
- Growth Percent (COLO 205): 103.10%
- Growth Percent (K-562): 99.98%
- Growth Percent (A549/ATCC): 100.18%
- Growth Percent (KM12): 101.43%
- Growth Percent (MDA-MB-435): 101.92%
- Growth Percent (PC-3): 104.77%
- Growth Percent (HOP-92): 90.75%
- Growth Percent (786-0): 101.2%
- Growth Percent (DU-145): 99.89%
- Growth Percent (U251): 98.73%
- Growth Percent (OVCAR-8): 102.91%
- Growth Percent (OVCAR-5): 104.98%
- Growth Percent (UACC-257): 102.32%
- Growth Percent (SF-295): 95.53%
- Growth Percent (MDA-MB-231/ATCC): 92.15%
- Growth Percent (BT-549): 107.71%
- Growth Percent (MALME-3M): 109.97%
- Growth Percent (NCI-H226): 89.78%
